# Measured values as given in patent US20230203041A1, “ANTAGONISTS OF THE ADENOSINE A2A RECEPTOR” (AdoRx Therapeutics Limited, priority 2020, published 2023).
# How the values were obtained:
# [1] = target: T1, human Adenosine A1 receptor (Homo sapiens, UniProt P30542); test: Adenosine receptor TR-FRET binding assay (CA200645 displacement), A1
# T1 sequence (P30542 1-326): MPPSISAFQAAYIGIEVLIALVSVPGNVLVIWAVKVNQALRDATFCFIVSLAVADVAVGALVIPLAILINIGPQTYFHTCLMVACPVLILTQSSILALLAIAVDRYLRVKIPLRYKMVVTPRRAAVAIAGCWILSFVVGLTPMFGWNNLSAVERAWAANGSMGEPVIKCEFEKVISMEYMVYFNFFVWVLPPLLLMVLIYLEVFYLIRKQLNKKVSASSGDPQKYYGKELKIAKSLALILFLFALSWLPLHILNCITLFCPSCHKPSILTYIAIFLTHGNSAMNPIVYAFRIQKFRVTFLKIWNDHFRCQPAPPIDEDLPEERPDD
# Protocol: (§1) All FRET binding experiments were conducted at room temperature in white 384-well plates, in assay binding buffer containing 1×LabMed (Cisbio, France), 100 μg/mL saponin, 1% DMSO and 0.02% pluronic acid. Binding of the fluorescently labelled Adenosine receptor antagonist XAC (CA200645, FRET acceptor) to terbium-labelled A1, A2a, A2b and A3 adenosine receptors (FRET donors) was detected by time-resolved FRET due to the close proximity of the donor and acceptor in a binding event. To investigate the ability of unlabelled test compounds to bind to Adenosine A1, A2a, A2b and A3 receptors, dose response curves were constructed that determined the ability of a range of concentrations to inhibit the binding of 30 nM CA200645 to the A2b receptor and 100 nM CA200645 to the A1, A2a, and A3 receptor.
# (§2) Serial dilution (1:3 dilutions) of test compounds in neat DMSO and transfer of a 400 nL sample of test compound into the assay plate was carried out using the Mosquito (TTP Labtech, UK). The compound samples were incubated for 2 hours at room temperature with a fixed concentration of CA200645 defined for each receptor (see above) and CHO cell membranes containing the human Adenosine A1 (0.5 μg/well), A2a (0.3 μg/well), A2b (1 μg/well) or A3 (1 μg/well) receptor in 40 μL of assay buffer. Total and non-specific binding of CA200645 was determined in the absence and presence of 10 μM XAC, respectively. Following 2 hours incubation, the level of CA200645 binding was detected on a Pherastar FSX (BMG Labtech, Germany) using standard TR-FRET settings. The terbium donor was excited with three laser flashes at a wavelength of 337 nm, and donor and acceptor emission was detected at 620 nm and 665 nm wavelengths, respectively. FRET ratios were obtained by multiplying the acceptor/donor ratio value by 10,000. Specific binding was determined by subtracting the non-specific binding FRET ratio from the total binding FRET ratio. Compound IC50 curves were analysed using GraphPad Prism 7.0 (GraphPad, USA) and Ki affinity values were determined from the obtained IC50 values using the method of Cheng and Prusoff.
# [2] = target: T2, human Adenosine A3 receptor (Homo sapiens, UniProt P0DMS8); test: Adenosine receptor TR-FRET binding assay (CA200645 displacement), A3
# T2 sequence (P0DMS8 1-318): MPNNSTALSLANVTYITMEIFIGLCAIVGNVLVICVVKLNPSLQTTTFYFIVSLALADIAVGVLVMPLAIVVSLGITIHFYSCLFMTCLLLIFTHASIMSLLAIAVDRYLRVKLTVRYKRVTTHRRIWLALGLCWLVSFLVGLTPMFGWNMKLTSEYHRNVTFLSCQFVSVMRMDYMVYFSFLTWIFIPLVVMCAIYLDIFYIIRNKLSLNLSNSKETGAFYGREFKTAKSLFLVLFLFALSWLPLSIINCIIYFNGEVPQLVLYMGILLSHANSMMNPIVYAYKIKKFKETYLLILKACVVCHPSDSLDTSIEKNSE
# [3] = test system: human PBMCs; test: CD3/CD28 stimulated IL-2 release NECA reversal assay in human PBMCs; type: cell-based; conditions: PBMC, CD3/CD28 antibody stimulated, 1 uM NECA, 24 hours, IL-2 in culture supernatant;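 further: dose-response as % inhibition where 100% equals no-NECA control wells with CD3/CD28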
# How it was run: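 PBMCs from citrated donor blood, 50,000 cells/well on plate-bound CD3 antibody (1 ug/ml), with 1 ug/ml CD28 antibody, 1 uM NECA and antagonist at 0.003-10 μM final. After 24 h at 37° C, supernatant IL-2 was measured by MSD immunoassay.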
# [4] = target: T3, human Adenosine A2b receptor (Homo sapiens, UniProt P29275); test: Adenosine receptor TR-FRET binding assay (CA200645 displacement), A2b; conditions: 30 nM CA200645, CHO cell membranes, 2 hours at room temperature
# T3 construct: expressed in transfected cells; host or cells: CHO cell membranes
# T3 sequence (P29275 1-332): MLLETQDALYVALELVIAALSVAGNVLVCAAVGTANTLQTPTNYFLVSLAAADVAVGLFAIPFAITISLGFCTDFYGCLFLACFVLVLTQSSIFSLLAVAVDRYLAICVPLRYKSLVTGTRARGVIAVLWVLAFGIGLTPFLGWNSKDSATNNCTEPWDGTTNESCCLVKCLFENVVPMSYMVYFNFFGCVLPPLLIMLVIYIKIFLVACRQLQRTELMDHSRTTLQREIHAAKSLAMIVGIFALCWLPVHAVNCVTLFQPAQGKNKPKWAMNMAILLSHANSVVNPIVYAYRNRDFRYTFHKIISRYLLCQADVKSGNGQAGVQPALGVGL
# [5] = test system: CD8+ T cells in human whole blood; test: Measurement of pCREB in CD8+ T cells in human whole blood; type: cell-based; conditions: T-cell, 1 h; heparinised human whole blood, rolipram, 3 μM NECA, 60 min, phospho-CREB in CD8+ T cells by FACS
# How it was run: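 Heparinised human whole blood preincubated 20 min at 37 °C with serially diluted A2a antagonists plus rolipram, then stimulated 60 min with 3 μM NECA (final). After fixation and RBC lysis, permeabilized leukocytes stained for phospho-CREB and CD8; pCREB in CD8+ T cells read by flow cytometry.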
# [6] = target: T4, human Adenosine A2a receptor (Homo sapiens, UniProt P29274); test: Adenosine receptor TR-FRET binding assay (CA200645 displacement), A2a; conditions: 100 nM CA200645, CHO cell membranes, 2 hours at room temperature
# T4 construct: expressed in transfected cells; host or cells: CHO cell membranes
# T4 sequence (P29274 whole entry): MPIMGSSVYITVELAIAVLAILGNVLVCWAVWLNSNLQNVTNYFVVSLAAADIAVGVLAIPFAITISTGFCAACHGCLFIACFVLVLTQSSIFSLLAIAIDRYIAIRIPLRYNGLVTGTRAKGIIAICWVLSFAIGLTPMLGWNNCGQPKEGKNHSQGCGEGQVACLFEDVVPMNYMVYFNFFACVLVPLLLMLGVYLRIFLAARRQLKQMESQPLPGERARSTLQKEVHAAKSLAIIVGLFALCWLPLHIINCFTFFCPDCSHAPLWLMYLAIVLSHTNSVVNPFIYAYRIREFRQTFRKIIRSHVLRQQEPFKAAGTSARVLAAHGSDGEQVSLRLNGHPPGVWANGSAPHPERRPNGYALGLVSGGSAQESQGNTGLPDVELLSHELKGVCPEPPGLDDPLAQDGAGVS
# Protocol: as §1, §2
Compound,Ki [1] [nM],Ki [2] [nM],IC50 [3] [nM],Ki [4] [nM],IC50 [5] [nM],Ki [6] [nM]
Cc1cc(-c2c(-c3cccc(C#N)c3)nn3ccc(C(=O)NC(C)(C)C)nc23)cc(Cl)n1 [Example 5.1],477,> 1000,20,16,2860,0.1
"COc1cc(-c2c(-c3cccc(C#N)c3)nn3ccc(C(=O)NCC(C)(C)O)nc23)cc(C)n1 [Example 12.6, 2-(3-Cyanophenyl)-N-(2-hydroxy-2-methyl-propyl)-3-(2-methoxy-6-methyl-4-pyridyl)pyrazolo[1,5-a]pyrimidine-5-carboxamide]",251,690,9,75,370,1
Cc1cc(-c2c(-c3cccc(C#N)c3)nn3ccc(N4CCOC(CCN(C)C)C4)nc23)cc(Cl)n1 (stereo not drawn) [Example 2.21],178,> 1000,31,19,1240,4.6
"Cc1cc(-c2c(-c3cccc(C#N)c3)nn3ccc(NC[C@@H](C)O)nc23)cc(Cl)n1 [Example 3, 3-[3-(2-Chloro-6-methyl-4-pyridyl)-5-[[(2R)-2-hydroxypropyl]amino]pyrazolo[1,5-a]pyrimidin-2-yl]benzonitrile]",74,> 1000,17,1,750,0.6
Cc1cc(-c2c(-c3cccc(C#N)c3)nn3ccc(NCCC(C)(C)O)nc23)cc(Cl)n1 [Example 2.9],31,> 1000,19,19,70,1.4
"Cc1cc(-c2c(-c3cccc(C#N)c3)nn3ccc(C(=O)NC45CC(O)(C4)C5)nc23)cc(Cl)n1 [Example 5, 3-(2-Chloro-6-methyl-4-pyridyl)-2-(3-cyanophenyl)-N-(3-hydroxy-1-bicyclo[1.1.1]pentanyl)pyrazolo[1,5-a]pyrimidine-5-carboxamide]",296,> 1000,23,9,1820,0.8
"Cc1cc(-c2c(-c3cccc(C#N)c3)nn3ccc(C(=O)N[C@H]4C[C@H](O)C4)nc23)cc(Cl)n1 [Example 6.19, 3-(2-Chloro-6-methyl-4-pyridyl)-2-(3-cyanophenyl)-N-(trans-3-hydroxycyclobutyl)pyrazolo[1,5-a]pyrimidine-5-carboxamide]",456,> 1000,26,22,470,0.3
"Cc1cc(-c2c(-c3cccc(C#N)c3)nn3ccc(C(=O)N[C@H]4CC[C@H](N)C4)nc23)cc(Cl)n1 [Example 7.14, 3-(2-Chloro-6-methyl-4-pyridyl)-2-(3-cyanophenyl)-N-[(1S,3S)-3-aminocyclopentyl]pyrazolo[1,5-a]pyrimidine-5-carboxamide]",249,> 1000,142,32,1930,2.8
"Cc1cc(-c2c(-c3cccc(C#N)c3)nn3ccc(C(=O)N[C@H]4C[C@@H](O)C4)nc23)cc(Cl)n1 [Example 6.20, 3-(2-Chloro-6-methyl-4-pyridyl)-2-(3-cyanophenyl)-N-(cis-3-hydroxycyclobutyl)pyrazolo[1,5-a]pyrimidine-5-carboxamide]",204,> 1000,36.3,19,560,0.7
"Cc1cc(-c2c(-c3cccc(C#N)c3)nn3ccc(C(=O)NCC(C)(C)O)nc23)cc(C)n1 [Example 10, 2-(3-Cyanophenyl)-3-(2,6-dimethyl-4-pyridyl)-N-(2-hydroxy-2-methyl-propyl)pyrazolo[1,5-a]pyrimidine-5-carboxamide]",236,> 1000,6,19,80,0.4
CCN1CCC(Nc2ccn3nc(-c4cccc(C#N)c4)c(-c4cc(C)nc(Cl)c4)c3n2)CC1 [Example 2.4],53,> 1000,32,2,2820,0.7
"Cc1cc(-c2c(-c3cccc(C#N)c3)nn3ccc(NC(N)=O)nc23)cc(C)n1 [Example 30.3, [2-(3-Cyanophenyl)-3-(2,6-dimethyl-4-pyridyl)pyrazolo[1,5-a]pyrimidin-5-yl]urea]",47,> 1000,50,14,120,1.8
"Cc1cc(-c2c(-c3cccc(C#N)c3)nn3ccc(C(=O)NC[C@@H](O)CO)nc23)cc(Cl)n1 [Example 6.15, 3-(2-Chloro-6-methyl-4-pyridyl)-2-(3-cyanophenyl)-N-[(2R)-2,3-dihydroxypropyl]pyrazolo[1,5-a]pyrimidine-5-carboxamide]",115,> 1000,14,3,240,0.7
"Cc1cc(-c2c(-c3cccc(C#N)c3)nn3ccc(N/C(=N\C#N)NC(C)C)nc23)cc(Cl)n1 [Example 32.1, 1-[3-(2-Chloro-6-methyl-4-pyridyl)-2-(3-cyanophenyl)pyrazolo[1,5-a]pyrimidin-5-yl]-2-cyano-3-isopropyl-guanidine]",10,115,9,1,1180,0.2
"CC(=O)NC(C)(C)CNC(=O)c1ccn2nc(-c3cccc(C#N)c3)c(-c3cc(C)nc(Cl)c3)c2n1 [Example 98, N-(2-Acetamido-2-methyl-propyl)-3-(2-chloro-6-methyl-4-pyridyl)-2-(3-cyanophenyl)pyrazolo[1,5-a]pyrimidine-5-carboxamide]",87,655,3,9,360,0.4
"Cc1cc(-c2c(-c3cccc(C#N)c3)nn3ccc(NCC(C)(C)O)nc23)cc(Cl)n1 [Example 2, 3-[3-(2-Chloro-6-methyl-4-pyridyl)-5-[(2-hydroxy-2-methyl-propyl)amino]pyrazolo[1,5-a]pyrimidin-2-yl]benzonitrile]",366,> 1000,84,67,420,3.9
"Cc1cc(-c2c(-c3cccc(C#N)c3)nn3ccc(C(=O)N[C@H](C)[C@H](O)CO)nc23)cc(Cl)n1 [Example 7.9, 3-(2-Chloro-6-methyl-4-pyridyl)-2-(3-cyanophenyl)-N-[(1 R,2S)-2,3-dihydroxy-1-methyl-propyl]pyrazolo[1,5-a]pyrimidine-5-carboxamide]",160,> 1000,4,2,70,0.6
Cc1cc(-c2c(-c3cccc(C#N)c3)nn3ccc(NC[C@H](C)O)nc23)cc(Cl)n1 [Example 3.1],58,2600,23,5,560,2.2
"Cc1cc(-c2c(-c3cccc(C#N)c3)nn3ccc(C(=O)NC[C@H](O)CO)nc23)cc(Cl)n1 [Example 6.13, 3-(2-Chloro-6-methyl-4-pyridyl)-2-(3-cyanophenyl)-N-[(2S)-2,3-dihydroxypropyl]pyrazolo[1,5-a]pyrimidine-5-carboxamide]",424,> 1000,32,17,390,1.7
